Laboratory results from patent US20260365646A1, “AKT1 MODULATORS” (Alterome Therapeutics, Inc., priority 2022, published 2026).

Target: T1, full length AKT E17K (Homo sapiens, UniProt P31749, E17K)
T1 construct: host or cells: HEK-293 (ATCC CRL-1573)
Assay: NanoBRET Target Engagement (TE) Intracellular Kinase Assay
Assay type: cell-based
Conditions: not given
How it was run: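 Live-cell BRET assay: cells expressing NanoLuc-fused full-length AKT E17K incubated 2 h with tracer at target-optimized concentration plus compound. BRET read at 450 nm donor/600 nm acceptor with extracellular NanoLuc inhibitor. EC50 from sigmoidal variable-slope fit of tracer displacement.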

T1 sequence (P31749 whole entry E17K): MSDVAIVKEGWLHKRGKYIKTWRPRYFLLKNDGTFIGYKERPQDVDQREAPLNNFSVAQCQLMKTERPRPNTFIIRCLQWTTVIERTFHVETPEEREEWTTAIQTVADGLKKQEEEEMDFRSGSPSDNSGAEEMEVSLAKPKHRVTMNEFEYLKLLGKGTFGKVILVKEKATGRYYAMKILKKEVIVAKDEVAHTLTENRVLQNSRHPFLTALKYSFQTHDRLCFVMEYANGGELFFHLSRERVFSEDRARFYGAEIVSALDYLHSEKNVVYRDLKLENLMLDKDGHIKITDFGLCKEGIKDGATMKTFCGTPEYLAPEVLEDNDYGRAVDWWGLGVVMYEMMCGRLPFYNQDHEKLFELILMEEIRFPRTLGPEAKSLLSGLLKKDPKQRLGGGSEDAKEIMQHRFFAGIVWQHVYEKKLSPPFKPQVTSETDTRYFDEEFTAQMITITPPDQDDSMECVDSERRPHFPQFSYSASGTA

Structure (SMILES)	EC50 [nM]
COc1c(N[C@@H]2CCN(Cc3ccc(-n4c(-c5cccnc5N)nc5ccc(-c6ccccc6)nc54)cc3)C2)c(=O)c1=O [Example 50, (R)-3-((1-(4-(2-(2-Aminopyridin-3-yl)-5-phenyl-3H-imidazo[4,5-b]pyridin-3-yl)benzyl)pyrrolidin-3-yl)amino)-4-methoxycyclobut-3-ene-1,2-dione]	15 to 60
Nc1ncccc1-c1nc2ccc(-c3ccccc3)nc2n1-c1ccc(CNC(=O)c2cccc(Nc3c(O)c(=O)c3=O)c2)cc1 [Example 43, N-(4-(2-(2-Aminopyridin-3-yl)-5-phenyl-3H-imidazo[4,5-b]pyridin-3-yl)benzyl)-3-((2-hydroxy-3,4-dioxocyclobut-1-en-1-yl)amino)benzamide]	> 600
CCOc1c(N2CCC3(CC2)CN(Cc2ccc(-n4c(-c5cccnc5N)nc5ccc(-c6ccccc6)nc54)cc2)C3)c(=O)c1=O [Example 59, 3-(2-(4-(2-(2-Aminopyridin-3-yl)-5-phenyl-3H-imidazo[4,5-b]pyridin-3-yl)benzyl)-2,7-diazaspiro[3.5]nonan-7-yl)-4-ethoxycyclobut-3-ene-1,2-dione]	15 to 60
COc1c(NC2CCCCN(Cc3ccc(-n4c(-c5cccnc5N)nc5ccc(-c6ccccc6)nc54)cc3)C2)c(=O)c1=O (centres unmarked) [Example 74, 3-((1-(4-(2-(2-aminopyridin-3-yl)-5-phenyl-3H-imidazo[4,5-b]pyridin-3-yl)benzyl)azepan-3-yl)amino)-4-methoxycyclobut-3-ene-1,2-dione]	60 to 600
CN(C)c1c(NC2CCN(Cc3ccc(-n4c(-c5cccnc5N)nc5ccc(-c6ccccc6)nc54)cc3)CC2)c(=O)c1=O [Example 19, 3-((1-(4-(2-(2-Aminopyridin-3-yl)-5-phenyl-3H-imidazo[4,5-b]pyridin-3-yl)benzyl)piperidin-4-yl)amino)-4-(dimethylamino)cyclobut-3-ene-1,2-dione]	> 600
CSc1c(N(C2CC2)C2CCN(Cc3ccc(-n4c(-c5cccnc5N)nc5ccc(-c6ccccc6)nc54)cc3)CC2)c(=O)c1=O [Example 95, 3-((1-(4-(2-(2-aminopyridin-3-yl)-5-phenyl-3H-imidazo[4,5-b]pyridin-3-yl)benzy1)piperidin-4-yl)(cyclopropyl)amino)-4-(methylthio)cyclobut-3-ene-1,2-dione]	15 to 60
COc1c(Nc2cccc(C(=O)NCc3ccc(-n4c(-c5cccnc5N)nc5ccc(-c6ccccc6)nc54)cc3)c2)c(=O)c1=O [Example 33, N-(4-(2-(2-aminopyridin-3-yl)-5-phenyl-3H-imidazo[4,5-b]pyridin-3-yl)benzyl)-3-((2-methoxy-3,4-dioxocyclobut-1-en-1-yl)amino)benzamide]	60 to 600
Nc1ncccc1-c1nc2ccc(-c3ccccc3)nc2n1-c1ccc(CN2CCC(Nc3c(OC4CCCC4)c(=S)c3=O)CC2)cc1 [Example 15, 2-((1-(4-(2-(2-Aminopyridin-3-yl)-5-phenyl-3H-imidazo[4,5-b]pyridin-3-yl)benzyl)piperidin-4-yl)amino)-3-(cyclopentyloxy)-4-thioxocyclobut-2-en-1-one]	60 to 600
COc1c(N2CCN(Cc3ccc(-n4c(-c5cccnc5N)nc5ccc(-c6ccccc6)nc54)cc3)CC2)c(=O)c1=O [Example 21, 3-(4-(4-(2-(2-Aminopyridin-3-yl)-5-phenyl-3H-imidazo[4,5-b]pyridin-3-yl)benzyl)piperazin-1-yl)-4-methoxycyclobut-3-ene-1,2-dione]	15 to 60
CC(C)Oc1c(NC2CCN(Cc3ccc(-n4c(-c5cccnc5N)nc5ccc(-c6ccccc6)nc54)cc3)CC2)c(=O)c1=O [Example 11, 3-((1-(4-(2-(2-aminopyridin-3-yl)-5-phenyl-3H-imidazo[4,5-b]pyridin-3-yl)benzyl)piperidin-4-yl)amino)-4-isopropoxycyclobut-3-ene-1,2-dione]	15 to 60

Same assay, conditions: read-out: NanoBRET AKT1E17K EC50; HEK-293 cells transfected with NanoLuc-AKT E17K; competitive displacement of NanoBRET tracer; 2 hr equilibration; 10-point 3-fold dilution

Structure (SMILES)	EC50 [nM]
COc1c(NC2CN(Cc3ccc(-n4c(-c5cccnc5N)nc5ccc(-c6ccccc6)nc54)cc3)C2)c(=O)c1=O [Example 51, 3-((1-(4-(2-(2-Aminopyridin-3-yl)-5-phenyl-3H-imidazo[4,5-b]pyridin-3-yl)benzyl)azetidin-3-yl)amino)-4-methoxycyclobut-3-ene-1,2-dione]	< 15
COc1c(N(C)[C@H]2CCN(Cc3ccc(-n4c(-c5cccnc5N)nc5ccc(-c6ccccc6)nc54)cc3)C2)c(=O)c1=O [Example 81, (S)-3-((1-(4-(2-(2-aminopyridin-3-yl)-5-phenyl-3H-imidazo[4,5-b]pyridin-3-yl)benzyl)pyrrolidin-3-yl)(methyl)amino)-4-methoxycyclobut-3-ene-1,2-dione]	< 15
COc1c(N2C[C@H]3C[C@@H]2CN3Cc2ccc(-n3c(-c4cccnc4N)nc4ccc(-c5ccccc5)nc43)cc2)c(=O)c1=O [Example 76, 3-((1R,4R)-5-(4-(2-(2-aminopyridin-3-yl)-5-phenyl-3H-imidazo[4,5-b]pyridin-3-yl)benzyl)-2,5-diazabicyclo[2.2.1]heptan-2-yl)-4-methoxycyclobut-3-ene-1,2-dione]	< 15
COc1c(N(C)C2CCN(Cc3ccc(-n4c(-c5cccnc5N)nc5ccc(-c6ccccc6)nc54)cc3)CC2)c(=O)c1=O [Example 27, 3-((1-(4-(2-(2-aminopyridin-3-yl)-5-phenyl-3H-imidazo[4,5-b]pyridin-3-yl)benzyl)piperidin-4-yl)(methyl)amino)-4-methoxycyclobut-3-ene-1,2-dione]	< 15
COc1c(NC2CCN(Cc3ccc(-n4c(-c5cccnc5N)nc5ccc(-c6cccc(NC(C)=O)c6)nc54)cc3)CC2)c(=O)c1=O [Example 8, N-(3-(2-(2-Aminopyridin-3-yl)-3-(4-((4-((2-methoxy-3,4-dioxocyclobut-1-en-1-yl)amino)piperidin-1-yl)methyl)phenyl)-3H-imidazo[4,5-b]pyridin-5-yl)phenyl)acetamide]	< 15
COc1c(NC2CCN(Cc3ccc(-n4c(-c5cccnc5N)nc5cc(-c6ccccc6)cnc54)cc3)CC2)c(=O)c1=O [Example 10, 3-((1-(4-(2-(2-Aminopyridin-3-yl)-6-phenyl-3H-imidazo[4,5-b]pyridin-3-yl)benzyl)piperidin-4-yl)amino)-4-methoxycyclobut-3-ene-1,2-dione]	< 15
CCSc1c(N(C)N2CCN(Cc3ccc(-n4c(-c5cccnc5N)nc5ccc(-c6ccccc6)nc54)cc3)CC2)c(=O)c1=O [Example 97, 3-((4-(4-(2-(2-aminopyridin-3-yl)-5-phenyl-3H-imidazo[4,5-b]pyridin-3-yl)benzyl)piperazin-1-yl)(methyl)amino)-4-(ethylthio)cyclobut-3-ene-1,2-dione]	< 15
